From US8394820B2, “N-azabicyclic carboxamide derivatives, preparation thereof and therapeutic use thereof” (Sanofi, priority 2008, dated 2013) come the findings set out here.

Molecules are shown by their SMILES.

The target of one data set is T1, TRPV1 receptor (Rattus norvegicus, UniProt O35433).
T1 construct: DRG neurones naturally express the TRPV1 receptor; endogenous in cells; host or cells: primary culture of newborn (1-day-old) rat dorsal root ganglion neurones
T1 sequence (O35433 whole entry): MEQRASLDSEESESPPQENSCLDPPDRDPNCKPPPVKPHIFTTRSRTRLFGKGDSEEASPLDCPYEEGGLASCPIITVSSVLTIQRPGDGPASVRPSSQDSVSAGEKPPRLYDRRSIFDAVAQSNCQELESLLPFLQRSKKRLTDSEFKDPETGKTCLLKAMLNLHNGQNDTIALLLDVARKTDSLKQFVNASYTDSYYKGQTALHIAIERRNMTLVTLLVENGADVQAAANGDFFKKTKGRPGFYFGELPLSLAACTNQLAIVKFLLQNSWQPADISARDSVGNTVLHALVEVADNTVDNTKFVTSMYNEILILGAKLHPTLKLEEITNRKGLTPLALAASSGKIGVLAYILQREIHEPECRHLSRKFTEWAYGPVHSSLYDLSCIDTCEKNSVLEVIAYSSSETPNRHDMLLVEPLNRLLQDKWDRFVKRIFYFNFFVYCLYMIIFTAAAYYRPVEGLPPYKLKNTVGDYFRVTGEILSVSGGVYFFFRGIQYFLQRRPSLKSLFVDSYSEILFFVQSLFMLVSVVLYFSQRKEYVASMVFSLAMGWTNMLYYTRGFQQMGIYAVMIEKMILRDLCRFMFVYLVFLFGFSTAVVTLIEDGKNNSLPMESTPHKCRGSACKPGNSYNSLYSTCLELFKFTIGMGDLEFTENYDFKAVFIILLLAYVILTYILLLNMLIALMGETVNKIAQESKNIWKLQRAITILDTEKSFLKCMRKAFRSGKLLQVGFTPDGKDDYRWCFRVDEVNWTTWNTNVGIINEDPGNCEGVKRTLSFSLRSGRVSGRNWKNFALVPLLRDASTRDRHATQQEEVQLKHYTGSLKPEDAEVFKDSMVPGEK
Put plainly: Test of inhibition of the current induced with capsaicin on rat DRGs (whole-cell patch-clamp). The class given is cell-based. The note with it: compound at 1 nM; inhibition of control capsaicin response; primary culture of newborn rat DRG neurones. How it is done: Test of Inhibition of the Current Induced with Capsaicin on Rat DRGs • Primary culture of rat dorsal root ganglion (DRG) cells:
DRG neurones naturally express the TRPV1 receptor.
The primary cultures of newborn rat DRGs are prepared using 1-day-old rats. Briefly, after dissection, the ganglions are trypsinized and the cells dissociated by mechanical trituration. The cells are resuspended in an Eagle basal culture medium containing 10% foetal calf serum, 25 mM KCl, 2 mM glutamine, 100 μg/ml gentamicin and 50 ng/ml of NGF, and then deposited on glass slides coated with laminin (0.25×10^6 cells per slide), which are then placed in Corning 12-well dishes. The cells are incubated at 37° C. in a humidified atmosphere containing 5% CO2 and 95% air. […]
The measuring chambers (volume 800 μl) containing the cell preparation are placed on the platform of an inverted microscope (Olympus IMT2) equipped with Hoffman optics (Modulation Contrast, New York) and observed at a magnification of 400×. […] The overall currents (membrane potential set at −60 mV) are recorded with an Axopatch 1D amplifier (Axon Instruments, Foster City, Calif.), connected to a PC running the Pclamp8 software (Axon Instrument). The current plots are recorded on paper and simultaneously digitized (sampling frequency 15 to 25 Hz) and acquired on the hard drive of the PC. […]
`Cc1nc2cc(NC(=O)c3cc4cc(F)ccc4n3Cc3cccc(F)c3)ccn2c1C` [Compound 1, N-(2,3-Dimethylimidazo[1,2-a]pyrid-7-yl)-5-fluoro-1-[(3-fluorophenyl)methyl]-1H-indole-2-carboxamide]: testing at 0.001 µM gave an inhibition of 81.5%.

Staying with this data set, now noted: compound at 100 nM; inhibition of control capsaicin response; primary culture of newborn rat DRG neurones.
In the case of `Cc1cc2ncc(NC(=O)c3cc4cc(F)ccc4n3Cc3cccc(F)c3)cn2n1` [Compound 20, N-(2-Methylpyrazolo[1,5-a]pyrimidin-6-yl)-5-fluoro-1-[(3-fluorophenyl)methyl]-1H-indole-2-carboxamide], testing at 0.1 µM gave an inhibition of 80%.

System in the next data set: not given
Experiment: not given
Details: not given
`CCOC(=O)c1cn2nc(NC(=O)c3cc4cc(F)ccc4n3Cc3cccc(F)c3)ccc2n1` showed a melting point of 267 to 268 °C. For `O=C(Nc1ccn2cc(CO)nc2c1)c1cc2cc(C(F)(F)F)cnc2n1Cc1cccc(F)c1`, the melting point is 238 to 240 °C. Compound `Cc1nc2cc(NC(=O)c3cc4cc(C(F)(F)F)cnc4n3Cc3cccc(F)c3)ccn2c1C` came in with a melting point of 287 to 288 °C.

`O=C(Nc1ccn2cc(CO)nc2c1)c1cc2cc(C(F)(F)F)ccc2n1Cc1cccc(F)c1` displayed a melting point of 254 to 255 °C. `CCc1cn2cc(NC(=O)c3cc4cc(F)ccc4n3Cc3cccc(F)c3)ccc2n1` displayed a melting point of 278 to 279 °C. In the case of `CCOC(=O)c1cn2cc(NC(=O)c3cc4cc(F)ccc4n3Cc3cccc(F)c3)ccc2n1`, the melting point was in the range of 242 to 245 °C. Compound `CC(C)(C)c1cn2ccc(NC(=O)c3cc4cc(F)ccc4n3Cc3cccc(F)c3)cc2n1` registered a melting point of 327 to 328 °C. Compound `O=C(Nc1ccn2cc(CO)nc2c1)c1cc2cc(F)ccc2n1Cc1cccc(F)c1` had a melting point of 244 to 245 °C. Compound `O=C(Nc1ccc2nc(CO)cn2c1)c1cc2cc(F)ccc2n1Cc1cccc(F)c1` showed a melting point of 247 to 249 °C. On the same count and under the same terms, then `O=C(Nc1ccc2nc(-c3cccs3)cn2c1)c1cc2cc(F)ccc2n1Cc1cccc(F)c1`, with 316 to 318 °C; and `Cc1nc2cc(NC(=O)c3cc4cc(C(F)(F)F)ccc4n3Cc3cccc(F)c3)ccn2c1C`, with 280 to 281 °C; and `CC(C)(C)c1cn2cc(NC(=O)c3cc4cc(F)ccc4n3Cc3cccc(F)c3)ccc2n1`, with 190 to 192 °C.

The compound `Cc1cn2ccc(NC(=O)c3cc4cc(F)ccc4n3Cc3cccc(F)c3)cc2n1` returned a melting point of 267 to 268 °C. The compound `Cc1nc2cc(NC(=O)c3cc4cc(F)ccc4n3Cc3cccc(F)c3)ccn2c1-c1ccccc1` had a melting point of 305 to 307 °C. Consider `COCc1cn2ccc(NC(=O)c3cc4cc(F)ccc4n3Cc3cccc(F)c3)cc2n1`, for which the melting point lay in the range of 215 to 216 °C. The compound `CCc1cn2ccc(NC(=O)c3cc4cc(C(F)(F)F)cnc4n3Cc3cccc(F)c3)cc2n1` yielded a melting point of 264 to 265 °C. With `O=C(Nc1ccn2cc(-c3cccs3)nc2c1)c1cc2cc(F)ccc2n1Cc1cccc(F)c1`, the melting point was 259 to 260 °C. Compound `Cc1cn2cc(NC(=O)c3cc4cc(F)ccc4n3Cc3cccc(F)c3)ccc2n1` yielded a melting point of 200 to 203 °C. Same read-out and setting: then `Cc1cc2ncc(NC(=O)c3cc4cc(F)ccc4n3Cc3cccc(F)c3)cn2n1` [Compound 20, N-(2-Methylpyrazolo[1,5-a]pyrimidin-6-yl)-5-fluoro-1-[(3-fluorophenyl)methyl]-1H-indole-2-carboxamide], with 267 to 268 °C.
